Earlier results in patent US20060160700A1, “Nadh-dependent cytochrome b5 reductase as target for herbicides” (Basf Aktiengesellschaft, priority 2002, published 2006).

Legend:
[1] = molecular target: T1, NADH-dependent cytochrome b5 reductase from human erthyrocytes (Homo sapiens, UniProt P00387); settings: enzyme from human erythrocytes; Palmieri et al. 1990
T1 construct: host or cells: human erythrocytes
T1 sequence (P00387 24-301 limits assumed): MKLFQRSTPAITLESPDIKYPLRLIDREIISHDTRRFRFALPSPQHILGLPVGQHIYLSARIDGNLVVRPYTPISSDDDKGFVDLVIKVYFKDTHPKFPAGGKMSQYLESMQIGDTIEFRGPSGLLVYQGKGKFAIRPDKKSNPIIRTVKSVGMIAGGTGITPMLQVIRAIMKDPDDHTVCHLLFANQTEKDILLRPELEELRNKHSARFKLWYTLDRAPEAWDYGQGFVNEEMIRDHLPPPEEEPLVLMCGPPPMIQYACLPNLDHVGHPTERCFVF

[2] = tested on: NADH-dependent cytochrome b5 reductase from various organisms; settings: enzyme from various organisms; Golf et al. 1985, Tamura et al. 1983
[3] = molecular target: T2, NADH-dependent cytochrome b5 reductase from rat liver microsomes (Rattus norvegicus, UniProt P20070); settings: at a concentration of 0.5 mM, Golf et al. 1985
T2 construct: host or cells: rat liver microsomes
T2 sequence (P20070 1-301): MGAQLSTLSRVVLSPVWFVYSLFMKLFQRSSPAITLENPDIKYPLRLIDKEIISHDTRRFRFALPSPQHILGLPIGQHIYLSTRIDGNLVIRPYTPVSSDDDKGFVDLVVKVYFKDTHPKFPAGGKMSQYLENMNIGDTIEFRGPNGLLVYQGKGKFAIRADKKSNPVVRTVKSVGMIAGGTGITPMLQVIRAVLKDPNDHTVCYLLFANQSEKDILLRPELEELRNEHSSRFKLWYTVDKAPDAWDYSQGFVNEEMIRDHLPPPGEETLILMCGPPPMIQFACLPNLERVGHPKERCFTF

Compound | inhibition of NADH-dependent cytochrome b5 reductase (result in words) [2] | further results
O=P(O)(O)O[C@H]1[C@H](OP(=O)(O)O)[C@@H](OP(=O)(O)O)[C@H](OP(=O)(O)O)[C@@H](OP(=O)(O)O)[C@H]1OP(=O)(O)O [inositol hexaphosphate] | – | concentrations that inhibit the NADH-dependent cytochrome b5 reductase [1]: millimolar range
CCC1(CCC(C)C)C(=O)NC(=O)NC1=O [amytal] | capable of inhibiting | –
O=c1oc2ccccc2c(O)c1Cc1c(O)c2ccccc2oc1=O [dicoumarol] | capable of inhibiting | –
CCN1C(=O)C=CC1=O [N-ethylmaleimide] | capable of inhibiting | –
CCN(CC)CCCC(C)Nc1c2ccc(Cl)cc2nc2ccc(OC)cc12 (stereo not drawn) [mepacrin] | capable of inhibiting | –
O=C(CC(=O)C(F)(F)F)c1cccs1 [thenoyltrifluoroacetone] | – | inhibition of NADH-dependent cytochrome b5 reductase [3]: 50%
